Literature values in publication PMC3166015 (Emerging Infectious Diseases, 2011).

Tested on: earliest pandemic (H1N1) 2009 virus isolates
Conditions: cited from earlier work

SMILES	susceptibility of earliest virus isolates
CCOC(=O)C1=C[C@@H](OC(CC)CC)[C@H](NC(C)=O)[C@@H](N)C1 [Oseltamivir, oseltamivir]	sensitive
CC(=O)N[C@H]1[C@H]([C@H](O)[C@H](O)CO)OC(C(=O)O)=C[C@@H]1N=C(N)N [Zanamivir, zanamivir]	sensitive
NC12CC3CC(CC(C3)C1)C2 [amantadine]	resistant
CC(N)C12CC3CC(CC(C3)C1)C2 (stereo not shown) [rimantadine]	resistant
